Laboratory results from patent publication US20050209251A1, “Substituted pyrazolo-pyrimidine-4-ones” (priority 2002, published 2005).
Read-outs that look alike come from different tables or passages of the source.

Assays:
[1] = logP determination by reversed-phase HPLC (EEC Directive 79/831 Annex V.A8), acidic range; format: physicochemical
Experimental: The logP values given in the table were determined in accordance with EEC Directive 79/831 Annex V.A8 by HPLC (High Performance Liquid Chromatography) using a reversed-phase column (C 18). Temperature: 43° C.
(a) Mobile phases for the determination in the acidic range: 0.1% phosphoric acid, acetonitrile; linear gradient from 10% acetonitrile to 90% acetonitrile—the corresponding measurement results in Table 1 are marked a).
Calibration was carried out using unbranched alkan-2-ones (having 3 to 16 carbon atoms) with known logP values (determination of the logP values by the retention times using linear interpolation between two successive alkanones).

weeds [2] = experiment: Post-emergence test (herbicidal action); format: in vivo; conditions: test plants of 5-15 cm sprayed, rated after three weeks
Experimental: Post-Emergence Test (Herbicidal Action)
(§1) To produce a suitable preparation of active compound, 1 part by weight of active compound is mixed with the stated amount of solvent, the stated amount of emulsifier is added and the concentrate is diluted with water to the desired concentration.
Test plants of a height of 5-15 cm are sprayed with the preparation of active compound such that the particular amounts of active compound desired are applied per unit area. The concentration of the spray liquor is chosen such that the particular amounts of active compound desired are applied in 1000 l of water/ha.
(§2) After three weeks, the degree of damage to the plants is rated in % damage in comparison to the development of the untreated control.

weeds [3] = experiment: Pre-emergence test (herbicidal action); format: in vivo; conditions: soil sprayed 24 hours after sowing, rated after three weeks
Experimental: Pre-Emergence Test (Herbicidal Action)
as §1
Seeds of the test plants are sown in normal soil. After 24 hours, the soil is sprayed with the preparation of active compound such that the particular amount of active compound desired is applied per unit area. The concentration of active compound in the spray liquor is chosen such that the particular amount of active compound desired is applied in 1000 litres of water per hectare.
as §2

[4] = pH 2, HPLC, C18 reversed-phase column, read-out: logP (pH 2)

Row | Compound | logP a) (Table 1, Physical data) [1] | also measured
1 | Cc1nc2c(cnn2-c2ccc(C(F)(F)F)cc2Cl)c(=O)n1C [Example 81] | (I) logP = 2.30^a) | –
2 | O=c1[nH]c(C2CC2)nc2c1cnn2-c1ncc(C(F)(F)F)cc1Cl [Example 5, 1-(3-chloro-5-trifluoromethylpyridin-2-yl)-6-cyclopropyl-1,5-dihydropyrazolo[3,4-d]pyrimidin-4-one] | – | melting point: 239 °C; chromatographic logP [1, 4]: 2.19
3 | COc1nc(C2CC2)nc2c1cnn2-c1cc(OC(F)F)n(C)n1 [Example 103] | (Ia) logP = 3.02^a) | –
4 | Cc1nc2c(cnn2-c2nn(C)c(OC(F)F)c2Cl)c(=O)n1C [Example 99] | (I) logP = 1.68^a)m.p. = 199 °C | –
5 | O=c1[nH]c(C(F)(F)Cl)nc2c1cnn2-c1ncc(C(F)(F)F)cc1Cl [Example 43] | (I) logP = 2.53^a) | –
6 | C#CCn1c(C2CC2)nc2c(cnn2-c2ncc(C(F)(F)F)cc2Cl)c1=O [Example 56] | (I) logP = 2.95^a) | –
7 | COc1nc(C(F)(F)F)nc2c1cnn2-c1ncc(Cl)cc1Cl [Example 72] | (Ia) logP = 3.76^a) | –
8 | COc1nc(C(F)(F)F)nc2c1cnn2-c1ncc(C(F)(F)F)cc1Cl [Example 39] | (Ia) logP = 3.99^a) | herbicidal action against weeds (degree of damage) (weeds [2]): strong action against weeds
9 | FC(F)Oc1nc(C2CC2)nc2c1cnn2-c1ncc(C(F)(F)F)cc1Cl [Example 57] | (Ia) logP = 4.24^a) | herbicidal action against weeds (degree of damage) (weeds [2]): strong action against weeds; herbicidal action against weeds (degree of damage) (weeds [3]): strong action against weeds
10 | Cc1nc2c(cnn2-c2c(Cl)cc(C(F)(F)F)cc2Cl)c(=O)n1C [Example 4, 1-(2,6-dichloro-4-trifluoromethylphenyl)-5,6-dimethyl-1,5-dihydropyrazolo[3,4-d]pyrimidin-4-one] | – | melting point: 195 °C; chromatographic logP [1, 4]: 2.69
11 | O=c1[nH]c(C2CCC2)nc2c1cnn2-c1ncc(C(F)(F)F)cc1Cl [Example 63] | (I) logP = 2.46^a) | –
12 | Cn1nc(-n2ncc3c(=O)n(C)c(C4CC4)nc32)c(Cl)c1OC(F)F [Example 107] | (I) logP = 2.21^a)m.p. = 220 °C | –
13 | Cn1cnc2c(cnn2-c2ncc(C(F)(F)F)cc2Cl)c1=O [Example 2, 1-(3-chloro-5-trifluoromethylpyridin-2-yl)-5-methyl-1,5-dihydropyrazolo[3,4-d]pyrimidin-4-one] | – | melting point: 253 °C; chromatographic logP [1, 4]: 1.76
14 | NC(=O)c1cnn(-c2ncc(C(F)(F)F)cc2Cl)c1NC(=O)C1(F)CC1 [VI-1, 5-(1-fluorocyclopropylcarbonylamino)-1-(3-chloro-5-trifluoromethylpyridin-2-yl)pyrazole-4-carboxamide] | – | melting point: 204 °C; chromatographic logP [1, 4]: 2.02
15 | Cc1nc2c(cnn2-c2ncc(C(F)(F)F)cc2Cl)c(=O)n1C [Example 8] | (I) logP = 1.97^a) | herbicidal action against weeds (degree of damage) (weeds [3]): strong action against weeds
16 | CC(C)Oc1nc(C2CC2)nc2c1cnn2-c1ncc(C(F)(F)F)cc1Cl [Example 52] | (Ia) logP = 4.86^a) | –
17 | CC(C)c1nc2c(cnn2-c2ncc(C(F)(F)F)cc2Cl)c(=O)[nH]1 [Example 17] | (I) logP = 2.36^a) | –
18 | COc1nc(C(C)(C)C)nc2c1cnn2-c1ncc(C(F)(F)F)cc1Cl [Example 27] | (Ia) logP = 2.74^a) | herbicidal action against weeds (degree of damage) (weeds [2]): strong action against weeds; herbicidal action against weeds (degree of damage) (weeds [3]): strong action against weeds
19 | CCn1c(C2CC2)nc2c(cnn2-c2ncc(C(F)(F)F)cc2Cl)c1=O [Example 50] | (I) logP = 2.96^a) | –
20 | CCOc1nc(C2CC2)nc2c1cnn2-c1ncc(C(F)(F)F)cc1Cl [Example 51] | (Ia) logP = 4.42^a) | –
21 | CC(C)(C)C(=O)Nc1c(C(N)=O)cnn1-c1ncc(C(F)(F)F)cc1Cl [VI-2] | – | logP a) (Table 3, Physical data) [1]: logP = 2.20^a)
22 | CC(C)Cc1nc2c(cnn2-c2ncc(C(F)(F)F)cc2Cl)c(=O)[nH]1 [Example 25] | (I) logP = 2.52^a) | –
23 | O=c1[nH]c(C(Cl)Cl)nc2c1cnn2-c1ncc(C(F)(F)F)cc1Cl [Example 12] | (I) logP = 2.39^a) | –
24 | Cn1nc(-n2ncc3c(=O)n(C)c(C4CC4)nc32)cc1OC(F)F [Example 102] | (I) logP = 1.90^a) | –

Row | Compound | logP a) (Table 1, Physical data) [1] | also measured
25 | Cn1c(C(F)(F)F)nc2c(cnn2-c2ncc(C(F)(F)F)cc2Cl)c1=O [Example 38] | (I) logP = 3.11^a) | –
26 | CC(C)c1nc2c(cnn2-c2ccc(C(F)(F)F)cc2Cl)c(=O)n1C [Example 84] | (I) logP = 3.52^a) | –
27 | Cn1nc(-n2ncc3c(=O)[nH]c(C4CC4)nc32)c(Cl)c1OC(F)F [Example 106] | (I) logP = 1.85^a)m.p. = 210 °C | –
28 | CCOC(=O)c1nc2c(cnn2-c2ncc(C(F)(F)F)cc2Cl)c(=O)n1C [Example 46] | (I) logP = 2.74^a) | –
29 | CC(C)c1nc2c(cnn2-c2ncc(C(F)(F)F)cc2Cl)c(=O)n1C [Example 18] | (I) logP = 2.89^a) | herbicidal action against weeds (degree of damage) (weeds [2]): strong action against weeds; herbicidal action against weeds (degree of damage) (weeds [3]): strong action against weeds
30 | O=c1[nH]c(C(F)(F)C(F)(F)F)nc2c1cnn2-c1ncc(C(F)(F)F)cc1Cl [Example 44] | (I) logP = 2.84^a) | –
31 | O=c1[nH]c(C(F)(F)F)nc2c1cnn2-c1ncc(C(F)(F)F)cc1Cl [Example 37] | (I) logP = 2.42^a) | –
32 | Cc1nc2c(cnn2-c2nn(C)c(OC(F)F)c2Cl)c(=O)[nH]1 [Example 98] | (I) logP = 1.40^a)m.p. = 254 °C | –
33 | Cn1c(C2CC2)nc2c(cnn2-c2ncc(C(F)(F)F)cc2Cl)c1=O [Example 109, 1-(3-chloro-5-trifluoromethylpyridin-2-yl)-5-methyl-6-cyclopropyl-1,5-dihydropyrazolo[3,4-d]pyrimidin-4-one] | – | herbicidal action against weeds (degree of damage) (weeds [2]): strong action against weeds; herbicidal action against weeds (degree of damage) (weeds [3]): strong action against weeds; chromatographic logP [1, 4]: 2.61; chromatographic logP ([1]; reversed-phase HPLC column (C18); acidic range: 0.1% phosphoric acid, acetonitrile gradient; C18; 43° C.; read-out: logP a) (Table 1, Physical data)): 2.61
34 | CCCc1nc2c(cnn2-c2ncc(C(F)(F)F)cc2Cl)c(=O)n1C [Example 24] | (I) logP = 2.81^a) | herbicidal action against weeds (degree of damage) (weeds [2]): strong action against weeds; herbicidal action against weeds (degree of damage) (weeds [3]): strong action against weeds
35 | COc1nc(C2(F)CC2)nc2c1cnn2-c1ncc(C(F)(F)F)cc1Cl [Example 60] | (Ia) logP = 3.73^a) | herbicidal action against weeds (degree of damage) (weeds [2]): strong action against weeds; herbicidal action against weeds (degree of damage) (weeds [3]): strong action against weeds
36 | CCOC(=O)COc1nc(C2CC2)nc2c1cnn2-c1ncc(C(F)(F)F)cc1Cl [Example 58] | (Ia) logP = 3.88^a) | –
37 | 1-(3-chloro-5-trifluoromethylpyridin-2-yl)-4-methoxy-6-cyclopropylpyrazolopyrimidin-4-one [Example 110] | (Ia) logP = 3.97^a) | herbicidal action against weeds (degree of damage) (weeds [2]): strong action against weeds; logP (pH 2) ([1]; pH 2): 3.97
38 | CCOC(=O)COc1nc(C(F)(F)F)nc2c1cnn2-c1ncc(C(F)(F)F)cc1Cl [Example 42] | (Ia) logP = 4.05^a) | –
39 | Cc1nc2c(cnn2-c2ncc(C(F)(F)F)cc2Cl)c(=O)[nH]1 [Example 7] | (I) logP = 1.64^a) | –
40 | Cn1c(C2CCC2)nc2c(cnn2-c2ncc(C(F)(F)F)cc2Cl)c1=O [Example 64] | (I) logP = 3.03^a) | herbicidal action against weeds (degree of damage) (weeds [2]): strong action against weeds; herbicidal action against weeds (degree of damage) (weeds [3]): strong action against weeds
41 | CC(C)(CCl)C(=O)Nc1c(C(N)=O)cnn1-c1ncc(C(F)(F)F)cc1Cl [VI-3] | – | logP a) (Table 3, Physical data) [1]: logP = 2.26^a)
42 | CCCc1nc2c(cnn2-c2ncc(C(F)(F)F)cc2Cl)c(=O)[nH]1 [Example 23] | (I) logP = 2.28^a) | –
43 | CCc1nc2c(cnn2-c2ncc(C(F)(F)F)cc2Cl)c(=O)[nH]1 [Example 13] | (I) logP = 2.39^a) | –
44 | NC(=O)c1cnn(-c2ncc(Cl)cc2Cl)c1N [II-2] | – | logP a) (Table 2, Physical data) [1]: logP = 1.02^a)
45 | Cn1nc(-n2ncc3c(=O)[nH]c(C4CC4)nc32)cc1OC(F)F [Example 101] | (I) logP = 1.59^a) | –
46 | CC(C)(C)c1nc2c(cnn2-c2ncc(C(F)(F)F)cc2Cl)c(=O)[nH]1 [Example 26] | (I) logP = 2.74^a) | –
47 | Cn1c(C2(F)CC2)nc2c(cnn2-c2ncc(C(F)(F)F)cc2Cl)c1=O [Example 59] | (I) logP = 2.82^a) | herbicidal action against weeds (degree of damage) (weeds [2]): strong action against weeds; herbicidal action against weeds (degree of damage) (weeds [3]): strong action against weeds
